# Source: patent US12275729B2 (Merck Sharp & Dohme LLC, priority 2017, dated 2025)
# Target: IDO1 (Homo sapiens, UniProt P14902)
# Assay: IDO1 Cellular Assay in HeLa Cells Stimulated with IFNγ
# Format: cell-based
# Conditions: about 48 hours, read-out: Hela IC50
# Sequence of IDO1 (P14902 whole entry): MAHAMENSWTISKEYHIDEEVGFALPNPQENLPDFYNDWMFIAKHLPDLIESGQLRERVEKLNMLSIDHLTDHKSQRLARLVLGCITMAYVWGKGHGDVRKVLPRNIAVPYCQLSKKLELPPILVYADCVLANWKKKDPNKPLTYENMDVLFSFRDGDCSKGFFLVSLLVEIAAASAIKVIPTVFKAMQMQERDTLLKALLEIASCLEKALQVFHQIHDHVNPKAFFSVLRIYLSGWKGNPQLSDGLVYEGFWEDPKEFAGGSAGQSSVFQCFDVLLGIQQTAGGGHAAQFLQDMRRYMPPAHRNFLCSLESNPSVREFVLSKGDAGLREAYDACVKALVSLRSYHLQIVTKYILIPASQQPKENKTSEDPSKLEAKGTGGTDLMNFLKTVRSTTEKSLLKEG
row,Structure (SMILES),IC50
1,"O=C(NC1(c2ccc3c(n2)CCCN3C(=O)C2CCCCO2)CC1)c1ccc(F)cc1 (stereo not shown) [Example 177, 4-fluoro-N-{1-[5-(oxane-2-carbonyl)-5,6,7,8-tetrahydro-1,5-naphthyridin-2-yl]cyclopropyl}benzamide]",7.5 nM
2,"CCc1nc(C(=O)NCc2ccc3c(c2)CCCN3C(=O)c2cccc(Cl)c2)co1 [Example 23, N-{[1-(3-chlorobenzene-1-carbonyl)-1,2,3,4-tetrahydroquinolin-6-yl]methyl}-2-ethyl-1,3-oxazole-4-carboxamide]",77.6 nM
3,"C[C@H](NC(=O)c1ccc(F)cn1)c1ccc2c(c1)CCCN2C(=O)C1(F)CC1 (single isomer, unassigned) [Example 34]",800 nM
4,"CC(NC(=O)c1ccc(F)cc1)c1ccc2c(n1)C(O)CCN2C(=O)C1CC1 (single isomer, unassigned) [Example 198, N-(1-(5-(cyclopropanecarbonyl)-8-hydroxy-5,6,7,8-tetrahydro-1,5-naphthyridin-2-yl)ethyl)-4-fluorobenzamide]",393 nM
5,"O=C(NC1(c2ccc3c(n2)CCCN3c2ccccn2)CC1)c1ccc(F)cc1 [Example 247, 4-fluoro-N-(1-(5-(pyridin-2-yl)-5,6,7,8-tetrahydro-1,5-naphthyridin-2-yl)cyclopropyl)benzamide]",13.9 nM
6,"O=C(C1CCO1)N1CCCc2nc(C3(C(=O)Nc4ccc(F)cc4)CCC3)ccc21 (stereo not shown) [Example 182, N-(4-fluorophenyl)-1-[5-(oxetane-2-carbonyl)-5,6,7,8-tetrahydro-1,5-naphthyridin-2-yl]cyclobutane-1-carboxamide]",5.2 nM
7,"CC(NC(=O)c1ccc(F)cc1)c1ccc2c(n1)C(O)CCN2C(=O)C1CC1 (stereo not shown) [Example 196, N-(1-(5-(cyclopropanecarbonyl)-8-hydroxy-5,6,7,8-tetrahydro-1,5-naphthyridin-2-yl)ethyl)-4-fluorobenzamide]",342 nM
8,"O=C(NC1(c2ccc3c(n2)CCCN3C(=O)c2cccc(Cl)c2)CC1)c1ccc(F)cc1 [Example 171, N-{1-[5-(3-chlorobenzene-1-carbonyl)-5,6,7,8-tetrahydro-1,5-naphthyridin-2-yl]cyclopropyl}-4-fluorobenzamide]",2.3 nM
9,"O=C(c1cnn(C2CC2)c1)N1CCCc2cc(C3(C(=O)Nc4ccc(F)cc4)CCC3)ccc21 [Example 113, 1-[1-(1-cyclopropyl-1H-pyrazole-4-carbonyl)-1,2,3,4-tetrahydroquinolin-6-yl]-N-(4-fluorophenyl)cyclobutane-1-carboxamide]",65.8 nM
10,"CC(C)c1cc(C(=O)NCc2ccc3c(c2)CCCN3C(=O)c2cccc(Cl)c2)on1 [Example 18, N-{[1-(3-chlorobenzene-1-carbonyl)-1,2,3,4-tetrahydroquinolin-6-yl]methyl}-3-(propan-2-yl)-1,2-oxazole-5-carboxamide]",186 nM
11,"CC(NC(=O)c1ccc(F)cc1)c1ccc2c(n1)CCCN2C(=O)C1(C)CCCCO1 (stereo in doubt) [Example 139, 4-fluoro-N-(1-{5-[(2S)-2-methyloxane-2-carbonyl]-5,6,7,8-tetrahydro-1,5-naphthyridin-2-yl}ethyl)benzamide]",348 nM
12,"CC(NC(=O)c1ccc(F)cc1)c1ccc2c(n1)C(F)(F)CCN2C(=O)C1CC1 (stereo not shown) [Example 193, N-(1-(5-(cyclopropanecarbonyl)-8,8-difluoro-5,6,7,8-tetrahydro-1,5-naphthyridin-2-yl)ethyl)-4-fluorobenzamide]",5290 nM
13,"O=C(OC1CC1)N1CCc2nc(C3(C(=O)Nc4ccc(F)cc4)CCC3)ccc21 [Example 269, cyclopropyl 5-(1-((4-fluorophenyl)carbamoyl)cyclobutyl) 2,3-dihydro-1H-pyrrolo[3,2-b]pyridine-1-carboxylate]",2.2 nM
14,"CC(C)C(C(=O)Nc1ccc(F)cc1)c1ccc2c(n1)CCCN2C(=O)C1CC1 (stereo not shown) [Example 265, 2-(5-(cyclopropanecarbonyl)-5,6,7,8-tetrahydro-1,5-naphthyridin-2-yl)-N-(4-fluorophenyl)-3-methylbutanamide]",15.7 nM
15,"CC(C)CC(=O)N1CCCc2cc(CNC(=O)c3ccc(C(F)(F)F)cc3)ccc21 [Example 7, N-{[1-(3-methylbutanoyl)-1,2,3,4-tetrahydroquinolin-6-yl]methyl}-4-(trifluoromethyl)benzamide]",42.5 nM
16,"CC(NC(=O)c1ccc(F)cc1)c1ccc2c(n1)C(F)(F)CCN2C(=O)C1CC1 (single isomer, unassigned) [Example 195, N-(1-(5-(cyclopropanecarbonyl)-8,8-difluoro-5,6,7,8-tetrahydro-1,5-naphthyridin-2-yl)ethyl)-4-fluorobenzamide]",9540 nM
17,"C[C@@H](NC(=O)c1ccc(F)cc1)c1ccc2c(c1)CCCN2C(=O)C1(F)CC1 (single isomer, unassigned) [Example 31]",1230 nM

# Continued, values first:
row,IC50,Structure (SMILES)
1,105 nM,"C[C@H](C(=O)Nc1ccc(F)cc1)c1ccc2c(c1)CCCN2C(=O)CC(F)(F)F [Example 91, (2S)-N-(4-fluorophenyl)-2-[1-(3,3,3-trifluoropropanoyl)-1,2,3,4-tetrahydroquinolin-6-yl]propanamide]"
2,25.9 nM,"COC(C)C(=O)N1CCCc2cc([C@H](C)C(=O)Nc3ccc(F)cc3)ccc21 (single isomer, unassigned) [Example 76]"
3,30.3 nM,"C[C@H](C(=O)Nc1ccc(F)cc1)c1ccc2c(c1)CCCN2C(=O)CC(C)(C)O [Example 71, (2S)-N-(4-fluorophenyl)-2-[1-(3-hydroxy-3-methylbutanoyl)-1,2,3,4-tetrahydroquinolin-6-yl]propanamide]"
4,5790 nM,"CC(C(=O)Nc1ccc(F)cc1)c1ccc2c(c1)CCCN2C1CCOCC1 (stereo not shown) [Example 230, N-(4-fluorophenyl)-2-[1-(oxan-4-yl)-1,2,3,4-tetrahydroquinolin-6-yl]propanamide]"
5,5.8 nM,"CC(C(=O)Nc1ccc(F)cc1)c1ccc2c(c1)CCCN2C(=O)C1CC1 (stereo not shown) [Example 36, 2-[1-(cyclopropanecarbonyl)-1,2,3,4-tetrahydroquinolin-6-yl]-N-(4-fluorophenyl)propanamide]"
6,381 nM,"CC(C)[C@H](O)C(=O)N1CCCc2cc([C@H](C)C(=O)Nc3ccc(F)cc3)ccc21 (single isomer, unassigned) [Example 73]"
7,16.5 nM,"C[C@H](C(=O)Nc1ccc(F)cn1)c1ccc2c(c1)CCCN2C(=O)C1(F)CC1 (single isomer, unassigned) [Example 63]"
8,4.2 nM,"Cc1noc(C(=O)N2CCCc3cc(C(C)C(=O)Nc4ccc(F)cc4)ccc32)n1 (stereo not shown) [Example 43, N-(4-fluorophenyl)-2-[1-(3-methyl-1H-1,2,4-oxadiazole-5-carbonyl)-1,2,3,4-tetrahydroquinolin-6-yl]propanamide]"
9,5 nM,"CC(C)C(=O)N1CCCc2cc(C(C)C(=O)Nc3ccc(F)cc3)ccc21 (stereo not shown) [Example 40, N-(4-fluorophenyl)-2-[1-(2-methylpropanoyl)-1,2,3,4-tetrahydroquinolin-6-yl]propanamide]"

# Same assay, conditions: read-out: Hela IC50
row,IC50,Structure (SMILES)
1,2.72 nM,"Cc1nccc(N2CCCc3nc(C(C)C(=O)Nc4ccc(F)cc4)ccc32)n1 (stereo not shown) [Example 371, N-(4-fluorophenyl)-2-(5-(2-methylpyrimidin-4-yl)-5,6,7,8-tetrahydro-1,5-naphthyridin-2-yl)propanamide]"
2,9.87 nM,"CC(NC(=O)c1ccc(F)cc1)c1ccc2c(n1)CCCN2C(=O)OCCC1CC1(F)F (stereo not shown) [Example 319, 2-(2,2-difluorocyclopropyl)ethyl 6-(1-(4-fluorobenzamido)ethyl)-3,4-dihydro-1,5-naphthyridine-1(2H)-carboxylate]"
